{"source": "paper PMC7610535", "about": "(Nature chemical biology, 2020)", "key": {"AURORA-A": {"target": "T1, AURORA-A (Homo sapiens, UniProt O14965)", "T1 sequence (O14965 1-403)": "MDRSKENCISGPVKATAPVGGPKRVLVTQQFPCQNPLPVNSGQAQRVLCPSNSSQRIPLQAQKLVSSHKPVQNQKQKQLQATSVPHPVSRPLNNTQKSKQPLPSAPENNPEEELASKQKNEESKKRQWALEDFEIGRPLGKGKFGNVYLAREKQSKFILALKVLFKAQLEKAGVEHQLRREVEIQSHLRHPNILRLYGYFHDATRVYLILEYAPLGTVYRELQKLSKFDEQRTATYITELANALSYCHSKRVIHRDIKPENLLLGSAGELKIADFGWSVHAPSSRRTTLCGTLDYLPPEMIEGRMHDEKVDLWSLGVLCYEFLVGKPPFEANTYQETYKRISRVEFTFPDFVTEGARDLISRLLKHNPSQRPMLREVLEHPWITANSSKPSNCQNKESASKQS", "assay": "Immunoblot of AURORA-A in compound-treated MV4-11 cells", "type": "cell-based", "details": "6 hours"}, "MV4-11 cells": {"system": "MV4-11 cells", "assay": "Quantitative SILAC mass spectrometry: relative protein abundance in MV4-11 cells", "type": "cell-based, human", "details": "0.1 µM"}, "AURORA-B^E162T": {"target": "AURORA-B^E162T (Homo sapiens, UniProt Q96GD4, E161T)", "sequence (Q96GD4 1-345 isoform Q96GD4-5 E162T)": "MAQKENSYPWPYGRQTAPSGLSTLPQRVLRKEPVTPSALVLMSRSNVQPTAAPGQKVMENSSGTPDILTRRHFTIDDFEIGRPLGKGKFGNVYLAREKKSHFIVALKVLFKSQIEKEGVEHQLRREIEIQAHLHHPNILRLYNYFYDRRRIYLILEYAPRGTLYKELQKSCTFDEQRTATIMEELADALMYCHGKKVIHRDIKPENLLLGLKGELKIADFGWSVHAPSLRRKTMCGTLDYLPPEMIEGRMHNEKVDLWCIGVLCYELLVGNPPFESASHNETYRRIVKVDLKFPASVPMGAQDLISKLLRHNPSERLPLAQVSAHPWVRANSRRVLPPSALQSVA", "assay": "Immunoblot of HA-tagged AURORA-B swap mutant in MV4-11 cells", "type": "cell-based", "details": "6 hours"}, "AURKA": {"target": "T2, AURKA (Homo sapiens, UniProt O14965)", "T2 sequence (O14965 1-403)": "T1 sequence (O14965 1-403)", "assay": "Kinobead selectivity profiling: AURKA", "type": "binding"}, "ACAD10": {"target": "T3, ACAD10 (Homo sapiens, UniProt Q6JQN1)", "T3 sequence (Q6JQN1 1-1059)": "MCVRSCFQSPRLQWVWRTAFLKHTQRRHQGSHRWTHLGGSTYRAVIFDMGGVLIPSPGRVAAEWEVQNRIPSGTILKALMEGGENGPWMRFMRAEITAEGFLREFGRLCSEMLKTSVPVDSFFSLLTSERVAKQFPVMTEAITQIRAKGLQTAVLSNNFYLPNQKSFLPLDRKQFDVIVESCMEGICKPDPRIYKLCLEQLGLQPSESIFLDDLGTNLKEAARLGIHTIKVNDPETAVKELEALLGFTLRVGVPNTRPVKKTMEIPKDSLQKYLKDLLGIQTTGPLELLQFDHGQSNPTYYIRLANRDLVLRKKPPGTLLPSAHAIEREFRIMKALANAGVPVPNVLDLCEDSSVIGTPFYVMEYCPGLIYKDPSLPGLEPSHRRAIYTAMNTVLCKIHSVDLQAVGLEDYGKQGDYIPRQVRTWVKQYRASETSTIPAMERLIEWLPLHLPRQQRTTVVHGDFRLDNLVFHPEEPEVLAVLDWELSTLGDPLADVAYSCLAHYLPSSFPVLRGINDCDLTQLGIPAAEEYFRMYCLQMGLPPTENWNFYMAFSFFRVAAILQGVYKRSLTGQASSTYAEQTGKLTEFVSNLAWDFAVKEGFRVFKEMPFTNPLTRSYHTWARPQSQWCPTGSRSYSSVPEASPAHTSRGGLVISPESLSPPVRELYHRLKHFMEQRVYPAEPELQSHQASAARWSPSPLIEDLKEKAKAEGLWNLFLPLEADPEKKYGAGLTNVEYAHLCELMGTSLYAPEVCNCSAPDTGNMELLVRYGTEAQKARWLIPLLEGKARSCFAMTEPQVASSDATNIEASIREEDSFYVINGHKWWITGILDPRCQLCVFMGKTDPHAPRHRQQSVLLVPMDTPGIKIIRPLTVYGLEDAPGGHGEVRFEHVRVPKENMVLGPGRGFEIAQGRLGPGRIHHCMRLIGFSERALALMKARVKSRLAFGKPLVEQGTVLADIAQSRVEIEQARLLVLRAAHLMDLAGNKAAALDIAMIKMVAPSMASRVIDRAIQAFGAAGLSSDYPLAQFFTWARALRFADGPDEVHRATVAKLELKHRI", "assay": "Kinobead selectivity profiling: ACAD10", "type": "binding"}}, "data": [{"smiles": "COc1cc(Nc2ncc3c(n2)-c2ccc(Cl)cc2C(c2c(F)cccc2OC)=NC3)ccc1C(=O)NCCOCCOCCNC(=O)COc1cccc2c1C(=O)N(C1CCC(=O)NC1=O)C2=O", "note": "(stereo not shown) [JB170]", "values": [{"measurement": "reduction of AURORA-A levels (in words)", "setting": "AURORA-A; 10 nM", "result": "reduced AURORA-A levels modestly"}, {"measurement": "reduction of AURORA-A levels (in words)", "setting": "AURORA-A; 100 nM and 1 µM", "result": "substantial degradation"}, {"measurement": "degrader activity on co-incubation with alisertib or thalidomide", "setting": "AURORA-A", "result": "abolished its degrader activity"}, {"measurement": "depletion of AURORA-A under proteasomal inhibition by MG132", "setting": "AURORA-A; MG132 10 µM", "result": "completely blocked"}, {"measurement": "depletion of AURORA-A under inhibition of cullin neddylation by MLN4924", "setting": "AURORA-A; MLN4924 3 µM", "result": "completely blocked"}, {"measurement": "destabilization of CEREBLON neosubstrates (GSPT1, CSNK1A1, ZFP91, IZKF1/3)", "setting": "MV4-11 cells; 6 hours", "result": "none was destabilized"}, {"measurement": "depletion of other proteins (p<0.05, log2FC<-1)", "setting": "MV4-11 cells; 6 hours, 4,259 proteins, including AURORA-B", "result": "no additional protein was depleted"}, {"measurement": "JB170-mediated degradation of AURORA-B^E162T with respect to AURORA-A", "setting": "AURORA-B^E162T", "result": "strongly attenuated"}, {"measurement": "Kd", "setting": "AURKA", "result": 99, "unit": "nM"}, {"measurement": "Kd", "setting": "ACAD10", "result": 253, "unit": "nM"}]}]}
